# In the supplement of paper PMC11208160:
# Assay: recombinant UMI read abundance after kanamycin selection (control-corrected) (log10(CPM+1)); higher = more efficient recombination; extreme values may be limits of the assay; sequences stand for … in AGTGCAGAGAAAATCGGCCAGTTTTCTCTGCCTGCAGTCCGCATGCCGTGGGACCCCTTGGGTTCTAACCTGTTGCCTAGATTTATGCAGCGGACTGCCTTTCTCCCAAAGTGATAAACCGG…AGGTTGGTTTCACT; site = the 11-nt donor
# How it was run: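 Sequenced counts of recombinant UMIs were turned into CPM, averaged across replicates and scaled with control-derived factors. The reported figure is log10(CPM+1). Those UMIs, each 12 nt long, tagged donor and donor-binding-loop pairs on a plasmid with a promoterless kanamycin gene, screened as a pool in Escherichia coli with IPTG (0.07 mM) plus kanamycin or without selection.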
# 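Also: IS621 bridge recombinase in Escherichia coli cells against a fixed T5 target plasmid.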
row,Sequence,recombinant UMI read abundance (log10)
1,CGAAGTGCATGGACCGGTTTTCCCGGTAATCCGTATTTGTT (site CGAAGTGCTAA),2.57
2,CGAATCCCATGGACCGGTTTTCCCGGTAATCCGTATTTGCA (site CGAATCCCTTG),1.55
3,CGAATTACATGGACCGGTTTTCCCGGTAATCCGTATTTGGC (site CGAATTACTGC),1.14
4,CGAATTCCATGGACCGGTTTTCCCGGTAATCCGTATTTGCG (site CGAATTCCTCG),0.935
5,CGAATTCCATGGACCGGTTTTCCCGGTAATCCGTATTTGTT (site CGAATTCCTAA),0.99
6,CGAATTCCATGGACCGGTTTTCCCGGTAATCCGTATTTGTT (site CGGAATCCTAA),0
7,CGACACGCATGGACCGGTTTTCCCGGTAATCCGTATTTGTT (site CGACACGCTAA),2
8,CGACCATCATGGACCGGTTTTCCCGGTAATCCGTATTTGGC (site CGACCATCTGC),3.07
9,CGACCGTCATGGACCGGTTTTCCCGGTAATCCGTATTTGCA (site CGACCGTCTTG),3.11
10,CGAGCAGCATGGACCGGTTTTCCCGGTAATCCGTATTTGCT (site CAAGCAGCTAG),1.13
11,CGAGCAGCATGGACCGGTTTTCCCGGTAATCCGTATTTGCT (site CCAGCAGCTAG),0.0072
12,CGAGCAGCATGGACCGGTTTTCCCGGTAATCCGTATTTGCT (site CGAGCAGCTAG),2.13
13,CGAGCAGCATGGACCGGTTTTCCCGGTAATCCGTATTTGCT (site CGATCATCTAG),0
14,CGAGCAGCATGGACCGGTTTTCCCGGTAATCCGTATTTGCT (site CTAGCAGCTAG),0.852
15,CGAGCATCATGGACCGGTTTTCCCGGTAATCCGTATTTGCA (site CGAGCATCTTG),2.46
16,CGAGCATCATGGACCGGTTTTCCCGGTAATCCGTATTTGCA (site CGATCATCTAG),0
17,CGAGCATCATGGACCGGTTTTCCCGGTAATCCGTATTTGTT (site CGAGCATCTAA),2.61
18,CGAGCATCATGGACCGGTTTTCCCGGTAATCCGTATTTGTT (site CGATCATCTAG),0
19,CGAGCCTCATGGACCGGTTTTCCCGGTAATCCGTATTTGGC (site CGAGCCTCTGC),2.21

row,Sequence,recombinant UMI read abundance (log10)
1,CGAGCTTCATGGACCGGTTTTCCCGGTAATCCGTATTTGAA (site CGAGCTTCTTT),1.88
2,CGAGGACCATGGACCGGTTTTCCCGGTAATCCGTATTTGAG (site CGAGGACCTCA),0.015
3,CGAGGACCATGGACCGGTTTTCCCGGTAATCCGTATTTGAG (site CGAGGACCTCC),0
4,CGAGGACCATGGACCGGTTTTCCCGGTAATCCGTATTTGAG (site CGAGGACCTCG),0.00506
5,CGAGGACCATGGACCGGTTTTCCCGGTAATCCGTATTTGAG (site CGAGGACCTCT),0.00302
6,CGAGGAGCATGGACCGGTTTTCCCGGTAATCCGTATTTGGA (site CGAGGAGCTTC),1.57
7,CGAGGATCATGGACCGGTTTTCCCGGTAATCCGTATTTGAC (site CGAGGATCTGT),2.99
8,CGAGGATCATGGACCGGTTTTCCCGGTAATCCGTATTTGAC (site CTAGTATCTGT),0
9,CGAGGGCCATGGACCGGTTTTCCCGGTAATCCGTATTTGCA (site CGAGGGCCTTG),0.708
10,CGAGGGCCATGGACCGGTTTTCCCGGTAATCCGTATTTGGG (site CGAGGACCTCC),0.0191
11,CGAGGGCCATGGACCGGTTTTCCCGGTAATCCGTATTTGGG (site CGAGGCCCTCC),0.0184
12,CGAGGGCCATGGACCGGTTTTCCCGGTAATCCGTATTTGGG (site CGAGGGCCTCC),0.0164
13,CGAGGGCCATGGACCGGTTTTCCCGGTAATCCGTATTTGGG (site CGAGGTCCTCC),0.0269
14,CGAGTACCATGGACCGGTTTTCCCGGTAATCCGTATTTGGG (site CGAGAACCTCC),0
15,CGAGTACCATGGACCGGTTTTCCCGGTAATCCGTATTTGGG (site CGAGCACCTCC),0.0141
16,CGAGTACCATGGACCGGTTTTCCCGGTAATCCGTATTTGGG (site CGAGGACCTCC),0.00419
17,CGAGTACCATGGACCGGTTTTCCCGGTAATCCGTATTTGGG (site CGAGTACCTCC),0.0186
18,CGAGTGCCATGGACCGGTTTTCCCGGTAATCCGTATTTGTT (site CGAGTGCCTAA),0.52
